Test results as given in patent US9006433B2, “Substituted pyrimidines” (Merck Sharp & Dohme Corp., priority 2010, dated 2015).

target: T1, PHD2 (Homo sapiens, UniProt Q9GZT9); assay: PHD2 inhibition assay (time resolved fluorescence, HIF-1α peptide hydroxylation / VHL complex detection); type: biochemical; settings: FLAG-tagged full length PHD2; 0.2 μM 2-oxoglutarate, 0.5 μM HIF-1α peptide
T1 construct: FLAG-tagged full length PHD2 expressed in and purified from baculovirus-infected Sf9 cells; FLAG; made in house; host or cells: baculovirus-infected Sf9 cells
T1 sequence (Q9GZT9 whole entry, species assumed): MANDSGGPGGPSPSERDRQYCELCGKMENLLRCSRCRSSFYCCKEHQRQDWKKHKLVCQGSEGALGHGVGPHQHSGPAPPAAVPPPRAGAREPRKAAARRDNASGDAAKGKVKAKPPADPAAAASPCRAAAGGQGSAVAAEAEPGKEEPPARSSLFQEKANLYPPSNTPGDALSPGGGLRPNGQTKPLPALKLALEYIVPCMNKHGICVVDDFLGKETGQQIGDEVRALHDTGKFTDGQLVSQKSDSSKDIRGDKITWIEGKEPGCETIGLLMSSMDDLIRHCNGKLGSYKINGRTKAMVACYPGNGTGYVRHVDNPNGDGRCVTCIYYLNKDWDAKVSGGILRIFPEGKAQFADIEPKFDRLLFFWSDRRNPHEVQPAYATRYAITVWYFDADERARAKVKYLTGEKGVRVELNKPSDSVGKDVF
Description: To each well of a 96-well plate was added 1 μL of test compound in DMSO and 20 μl of assay buffer (50 mM Iris pH 7.4/0.01% Tween-20/0.1 mg/ml bovine serum albumin/10 μM ferrous sulfate/1 mM sodium ascorbate/20 μg/ml catalase) containing 0.15 μg/ml FLAG-tagged full length PHD2 expressed in and purified from baculovirus-infected Sf9 cells. After a 30 min preincubation at room temperature, the enzymatic reactions were initiated by the addition of […] of substrates (final concentrations of 0.2 μM 2-oxoglutarate and 0.5 μM HIF-1α peptide biotinyl-DLDLEMLAPYIPMDDDFQL (SEQ ID NO:1)). After 2 hr at room temperature, the reactions were terminated and signals were developed by the addition of a 25 μL quench/detection mix to a final concentration of 1 mM ortho-phenanthroline, 0.1 mM EDTA, 0.5 nM anti-(His)6 LANCE reagent (Perkin-Elmer Life Sciences), 100 nM AF647-labeled streptavidin (Invitrogen), and 2 μg/ml (His)-6-VHL complex (S. Tan(2001) Protein Expr. Purif. 21, 224-234). The ratio of time resolved fluorescence signals at 665 and 620 nm was determined, and percent inhibition was calculated relative to an uninhibited control sample run in parallel.

Row | SMILES | IC50
1 | O=S(=O)(Nc1cnc(-n2cccn2)nc1O)c1ccc(Cl)cc1 [Compound 4-1, 4-chloro-N-[4-hydroxy-2-(1H-pyrazol-1-yl)pyrimidin-5-yl]benzenesulfonamide] | 20 to 100 nM
2 | O=C(Cc1ccc(C(F)(F)F)cc1)Nc1cnc(-n2cccn2)nc1O [Compound 3-29, 2-(4-(trifluoromethyl)phenyl)-N-(4-hydroxy-2-(1H-pyrazol-1-yl)pyrimidin-5-yl)acetamide] | 0.5 to 20 nM
3 | O=S(=O)(Cc1ccc(C(F)(F)F)cc1)Nc1cnc(-n2cccn2)nc1O [Compound 4-4, N-[4-hydroxy-2-(1H-pyrazol-1-yl)pyrimidin-5-yl]-1-[4-(trifluoromethyl)phenyl]methanesulfonamide] | 100 to 10000 nM
4 | O=C(Cc1ccc2c(c1)OCO2)Nc1cnc(-n2cccn2)nc1O [Compound 3-40, 2-(benzo[d][1,3]dioxol-5-yl)-N-(4-hydroxy-2-(1H-pyrazol-1-yl)pyrimidin-5-yl)acetamide] | 0.5 to 20 nM
5 | O=C(Nc1cnc(-n2cccn2)nc1O)C1Cc2ccccc2C1 [Compound 3-55, 2,3-dihydro-N-(4-hydroxy-2-(1H-pyrazol-1-yl)pyrimidin-5-yl)-1H-indene-2-carboxamide] | 0.5 to 20 nM
6 | O=C(Nc1cnc(-n2cccn2)nc1O)c1cccc(-c2ccccc2)c1 [Compound 3-18, N-[4-hydroxy-2-(1H-pyrazol-1-yl)pyrimidin-5-yl]biphenyl-3-carboxamide] | 20 to 100 nM
7 | CCC(C)C(C(=O)Nc1cnc(-n2cccn2)nc1O)c1ccccc1 (stereo not drawn) [Compound 3-36, N-(4-hydroxy-2-(1H-pyrazol-1-yl)pyrimidin-5-yl)-3-methyl-2-phenylpentanamide] | 0.5 to 20 nM
8 | O=C(Nc1cnc(-n2cccn2)nc1O)c1ccccc1Oc1ccccc1 [Compound 3-20, N-(4-hydroxy-2-(1H-pyrazol-1-yl)pyrimidin-5-yl)-2-phenoxybenzamide] | 20 to 100 nM
9 | O=C(Cc1ccc(Cl)cc1)Nc1cnc(-n2cccn2)nc1O [Compound 3-25, 2-(4-chlorophenyl)-N-(4-hydroxy-2-(1H-pyrazol-1-yl)pyrimidin-5-yl)acetamide] | 0.5 to 20 nM
10 | O=S(=O)(Nc1cnc(-n2cccn2)nc1O)c1cccc(Cl)c1 [Compound 4-3, 3-chloro-N-[4-hydroxy-2-(1H-pyrazol-1-yl)pyrimidin-5-yl]benzenesulfonamide] | 100 to 10000 nM
11 | O=S(=O)(Cc1ccc(Cl)cc1)Nc1cnc(-n2cccn2)nc1O [Compound 4-2, 1-(4-chlorophenyl)-N-[4-hydroxy-2-(1H-pyrazol-1-yl)pyrimidin-5-yl]methanesulfonamide] | 20 to 100 nM
12 | CC(C)(C(=O)Nc1cnc(-n2cccn2)nc1O)c1ccccc1 [Compound 3-37, N-(4-hydroxy-2-(1H-pyrazol-1-yl)pyrimidin-5-yl)-2-methyl-2-phenylpropanamide] | 0.5 to 20 nM
13 | CC(C)(C)OC(=O)N1CCCC(C(=O)Nc2cnc(-n3cccn3)nc2O)C1 (stereo not drawn) [Compound 3-49, tert-butyl 3-(4-hydroxy-2-(1H-pyrazol-1-yl)pyrimidin-5-ylcarbamoyl)piperidine-1-carboxylate] | 100 to 10000 nM
14 | O=C(Nc1cnc(-n2cccn2)nc1O)C1CCCc2ccccc21 (stereo not drawn) [Compound 3-52, 1,2,3,4-tetrahydro-N-(4-hydroxy-2-(1H-pyrazol-1-yl)pyrimidin-5-yl)naphthalene-1-carboxamide] | 0.5 to 20 nM
15 | O=C(CCCc1ccccc1)Nc1cnc(-n2cccn2)nc1O [Compound 3-45, N-(4-hydroxy-2-(1H-pyrazol-1-yl)pyrimidin-5-yl)-4-phenylbutanamide] | 0.5 to 20 nM
16 | O=C(Nc1cnc(-n2cccn2)nc1O)C1CCc2ccccc2C1 (stereo not drawn) [Compound 3-54, 1,2,3,4-tetrahydro-N-(4-hydroxy-2-(1H-pyrazol-1-yl)pyrimidin-5-yl)naphthalene-2-carboxamide] | 20 to 100 nM
17 | COc1cccc(C(=O)Nc2cnc(-n3cccn3)nc2O)c1 [Compound 3-12, N-(4-hydroxy-2-(1H-pyrazol-1-yl)pyrimidin-5-yl)-3-methoxybenzamide] | 20 to 100 nM
18 | COc1ccccc1C(=O)Nc1cnc(-n2cccn2)nc1O [Compound 3-11, N-(4-hydroxy-2-(1H-pyrazol-1-yl)pyrimidin-5-yl)-2-methoxybenzamide] | 20 to 100 nM
19 | CC(C)C(C(=O)Nc1cnc(-n2cccn2)nc1O)c1ccccc1 (stereo not drawn) [Compound 3-35, N-(4-hydroxy-2-(1H-pyrazol-1-yl)pyrimidin-5-yl)-3-methyl-2-phenylbutanamide] | 20 to 100 nM
20 | COc1ccccc1CC(=O)Nc1cnc(-n2cccn2)nc1O [Compound 3-30, N-(4-hydroxy-2-(1H-pyrazol-1-yl)pyrimidin-5-yl)-2-(2-methoxyphenyl)acetamide] | 0.5 to 20 nM

Further lines, results first:

Row | IC50 | SMILES
21 | 20 to 100 nM | CC(C)(C)CCOC(=O)Nc1cnc(-n2cccn2)nc1O [Compound 5-15, 3,3-dimethylbutyl 4-hydroxy-2-(1H-pyrazol-1-yl)pyrimidin-5-ylcarbamate]
22 | 100 to 10000 nM | O=C(Cc1cnc(-n2cccn2)nc1O)NC1CCCCC1 [Compound 12-2, N-cyclohexyl-2-(4-hydroxy-2-(1H-pyrazol-1-yl)pyrimidin-5-yl)acetamide]
23 | 100 to 10000 nM | CC(C)NC(=O)Cc1cnc(-n2cccn2)nc1O [Compound 12-3, 2-(4-hydroxy-2-(1H-pyrazol-1-yl)pyrimidin-5-yl)-N-isopropylacetamide]
24 | 0.5 to 20 nM | O=C(NCc1ccccc1)Nc1cnc(-n2cccn2)nc1O [Compound 5-2, 1-benzyl-3-(4-hydroxy-2-(1H-pyrazol-1-yl)pyrimidin-5-yl)urea]
25 | 20 to 100 nM | O=C(Nc1cnc(-n2cccn2)nc1O)OCCc1ccccc1 [Compound 5-16, phenethyl 4-hydroxy-2-(1H-pyrazol-1-yl)pyrimidin-5-ylcarbamate]
26 | 100 to 10000 nM | CC(C)(C)NC(=O)Nc1cnc(-n2cccn2)nc1O [Compound 5-6, ert-butyl-3-(4-hydroxy-2-(1H-pyrazol-1-yl)pyrimidin-5-yl)urea]
27 | 20 to 100 nM | O=C(Nc1cnc(-n2cccn2)nc1O)OC1CCCC1 [Compound 5-11, cyclopentyl 4-hydroxy-2-(1H-pyrazol-1-yl)pyrimidin-5-ylcarbamate]
28 | 100 to 10000 nM | Cc1ccc(S(=O)(=O)NC(=O)c2cnc(-c3cccnn3)nc2O)cc1 [Compound 13-1, 4-hydroxy-2-(pyridazin-3-yl)-N-tosylpyrimidine-5-carboxamide]
29 | 20 to 100 nM | O=C(Nc1cnc(-n2cccn2)nc1O)NC1CCCCC1 [Compound 5-4, 1-cyclohexyl-3-(4-hydroxy-2-(1H-pyrazol-1-yl)pyrimidin-5-yl)urea]
30 | 100 to 10000 nM | CCCCOC(=O)Nc1cnc(-n2cccn2)nc1O [Compound 5-13, butyl 4-hydroxy-2-(1H-pyrazol-1-yl)pyrimidin-5-ylcarbamate]
31 | 0.5 to 20 nM | Oc1nc(-n2cccn2)ncc1NC(=S)NC(c1ccccc1)c1ccccc1 [Compound 6-1, 1-benzhydryl-3-(4-hydroxy-2-(1H-pyrazol-1-yl)pyrimidin-5-yl)thiourea]
32 | 100 to 10000 nM | Oc1nc(-n2cccn2)ncc1-c1cnn(Cc2ccccc2)c1 [Compound 11-2, 5-(1-benzyl-1H-pyrazol-4-yl)-2-(1H-pyrazol-1-yl)pyrimidin-4-ol]
33 | 0.5 to 20 nM | CC(NC(=S)Nc1cnc(-n2cccn2)nc1O)c1ccccc1 (stereo not drawn) [Compound 7-1, 1-(4-hydroxy-2-(1H-pyrazol-1-yl)pyrimidin-5-yl)-3-(1-phenylethyl)thiourea]
